Experimental data published in publication PMC3653934, “Identification of Adiponectin Receptor Agonist Utilizing a Fluorescence Polarization Based High Throughput Assay” (PLoS ONE, 2013).
Where two headings read alike, the source gives them in different places.

Assays:
MDA-MB-231 cells = experiment: Cell viability assay (CellTiter-Blue) in MDA-MB-231 cells; type: cell-based; details: Homo sapiens, MDA-MB-231; 72 h, 20 µM to 1.2 nM; read-out: IC50 (µM) MDA-MB-231 cells, cell viability
Method: All cell lines were obtained from the American Type Culture Collection (ATCC). MCF-7 and MDA-MB-231 cells were maintained in DMEM containing 10% fetal bovine serum and supplied with 1% penicillin/streptomycin. All cells were maintained in a 5% CO2 atmosphere at 37°C.
The effects of the lead compounds on cell proliferation were tested in MCF-7 and MDA-MB-231 cells. Cells were grown to 80% confluence, harvested and aliquoted into 384-well plates in a total volume of 45 µl per well. The outer wells were inoculated with sterile water to minimize evaporation from the sample wells. Cells were allowed to attach overnight and 5 µl culture media containing either vehicles or drug were added. Cell proliferation was evaluated using CellTilter-Blue reagent (Promega, China) according to manufacturer’s instructions after 72-h incubation. Fluorescence was measured with an excitation at 530 nm and emission at 590 nm. After background subtraction, cell viability values were normalized to vehicle controls and expressed as percentage of the mean of the relative vehicle controls.
To further confirm the agonistic activity of hit compounds, MDA-MB-231 and MCF-7 cells were treated with different concentrations of g-Ad or drug (20 µM to 1.2 nM) for 72 hours and cell viability was measured. Thus, four compounds (arctiin, (-)-arctigenin, matairesinol and gramine) that show agonistic activity against adiponectin receptor 1 and four compounds (deoxyschizandrin, taxifoliol, syringing and parthenolide) that show agonistic activity against adiponectin receptor 2 were identified.

[1] = test system: PPARα phosphorylation (AdipoR2 signaling) in MCF-7 cells; experiment: Western blot of PPARα phosphorylation in MCF-7 cells; type: cell-based, human; details: MCF-7 cells treated at IC50 concentration for 6 h
Method: Cells were grown to 80% confluence, harvested and aliquoted into 100 mm dishes in serum free media. Cells were allowed to attach overnight and then the serum free media was removed and then cells were washed in PBS twice. Different doses of compounds were prepared in the normal media and added to different dishes for an additional 6 h. Cells were washed 3 times with ice-cold PBS and cell lysates were prepared by scraping cells into lysis buffer A (RIPA buffer, 2 mM dithiothreitol […], 1×Halt protease inhibitor cocktail (Thermo scientific), and 1×Halt phosphatase inhibitor cocktail (Thermo scientific)). The cells were allowed to swell on ice (5 min), after which the homogenate was centrifuged. The supernatants were transferred to fresh tubes and protein concentrations were determined using the Bio-Rad protein assay (Bio-Rad Laboratories, Inc.) per manufacturer’s instructions. Aliquots of the cell lysates were stored at −80°C.
Equal amounts of total protein (50 µg) were subjected to electrophoresis (10% tris-HCl, 1.0 mm gels) and transferred to nitrocellulose membranes. Membranes were blocked in TBS containing 0.05% Tween 20 (TBST) and 5% nonfat milk or 5% BSA for 1 hour at room temperature. Appropriately diluted primary antibodies were incubated in TBST/5% nonfat milk or TBST/5% BSA for 2 h at room temperature or overnight at 4 °C. Membranes were washed in TBST three times for 15 min each. Appropriately diluted secondary antibodies were incubated in superblock blocking buffers (Thermo Scientific) for 1 h at room temperature. Membranes were washed in TBST three times for 15 min. Proteins were detected by Amersham™ ECL plus western blotting detection system (GE healthcare). The following antibodies were used: anti-AdipoR1 M18, anti-AdipoR2 C12 (Santa Cruz Biotechnology, Santa Cruz, CA), anti-p-AMPKα(T172), anti-AMPKα, and anti-β-actin (Cell Signaling, Danvers, MA).
It is well established that adiponectin activates AMPK and p38 MAPK through AdipoR1 or PPARα through AdipoR2 to mediate its downstream signaling cascades, [9], [12], [14]. […] The levels of phosphorylation of AMPK and phosphorylation of PPARα were examined and the relative expression levels of the phospho-protein to the total expression of protein levels were quantified using ImageJ software (NIH) ( Fig. 3 ).
Figure 3 Effects of hit compounds on adiponectin receptor signaling pathways. […] A total 50 µg of cell lysate was loaded to each lane. Western blot was performed follow the protocol in materials and methods section.

AdipoR1 = target: T1, AdipoR1 (Homo sapiens, UniProt Q96A54); experiment: Competitive FP assay, displacement of probe 1 from AdipoR1; type: binding; details: 2 µM receptor, 100 nM probe 1, 30 min, 25°C
T1 construct: The cDNAs encoding full-length of AdipoR1 or AdipoR2 were then sub-cloned into the mammalian expression vector pBEX and pcDNA3.1–Myc-His(+); His (C); Myc (C); made in house; host or cells: CHO cells
T1 sequence (Q96A54 1-375): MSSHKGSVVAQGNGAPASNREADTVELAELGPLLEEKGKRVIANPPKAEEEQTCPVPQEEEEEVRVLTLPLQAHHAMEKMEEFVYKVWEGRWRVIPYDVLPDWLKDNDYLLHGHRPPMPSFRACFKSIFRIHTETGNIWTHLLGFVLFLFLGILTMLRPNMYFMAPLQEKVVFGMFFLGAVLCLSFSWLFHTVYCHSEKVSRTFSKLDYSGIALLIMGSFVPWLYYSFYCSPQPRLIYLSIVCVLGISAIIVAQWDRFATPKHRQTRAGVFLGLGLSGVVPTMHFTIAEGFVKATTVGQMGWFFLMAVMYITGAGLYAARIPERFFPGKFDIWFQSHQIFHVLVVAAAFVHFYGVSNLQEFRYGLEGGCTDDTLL
Method: Unlabeled short peptide 3 was titrated against the FITC-labeled peptide and adiponectin receptor mixture. Plates were incubated at room temperature for up to 3 hours or 30 min at different temperatures. FP values were taken and IC50 values were calculated.
Master mixtures containing fluorescein-labeled probe 1 and adiponectin receptor (AdipoR1 or AdiopR2, 2 µM and probe 1 at 100 nM) in a reaction volume of 19 µl were prepared and loaded to plates. The library compounds (10 µM –0.078 µM, half dilutions) were prepared separately and transferred into the assay plates. The first and last columns of each plate were used as positive and negative control wells. Wells containing the drug only were used as controls to detect auto-fluorescence of the compounds in the total fluorescence assay. After subtraction of the background signal, data was processed and the IC50 values were determined by non-linear least square fitting using SigmaPlot 11.0.
Given that the present study is a screening study, peptide 3 was chosen as the positive control for cost-efficiency purposes.
To optimize the FP assay properly, it was necessary to assess the stability of the FP assay. The conditions for the FP assay were established by testing various parameters including incubation temperature, time, TF values, ΔmP values, and DMSO tolerance. […] In summary, the competitive FP binding assay conditions ideal for identifying adiponectin receptor agonists are: i) 2 µM adiponectin receptor, ii) 100 nM probe 1, iii) 5% final DMSO concentration (v/v), and iv) incubation for 30 min at 25°C before reading the plate.
A pilot screen against the natural product library of 10,000 compounds described above was performed at screening concentrations of 10 µM to 0.078 µM (half serial dilutions) in 5% DMSO (v/v). Controls present in each assay plate consisted of 5% DMSO (negative control) or peptide 3 (positive control).
We screened a library of 10,000 natural compounds for adiponectin agonists. […] 46 compounds that could generate IC50 curves were identified as initial hits.

[2] = primary screen, read-out: IC50 vs AdipoR1 (µM) Primary screen
[3] = validation, read-out: IC50 vs AdipoR1 (µM) Validated

| IC50 (MDA-MB-231 cells) | IC50 (AdipoR1; [2]) | IC50 (AdipoR1; [3]) | SMILES | Effect on PPARα phosphorylation level [1] | Effect on PPARα phosphorylation level ([1]; listed as gramine) |
| --- | --- | --- | --- | --- | --- |
| 1.8 ± 0.6 µM | 0.9 µM | 0.8 ± 0.2 µM | COc1cc(C[C@H]2COC(=O)[C@@H]2Cc2ccc(O)c(OC)c2)ccc1O [Compound 3, Matairesinol] | inhibited | – |
| > 10 µM | > 5 µM | > 5 µM | COc1cc2c(c(OC)c1OC)-c1c(cc(OC)c(OC)c1OC)C[C@H](C)[C@H](C)C2 [Compound 4, Deoxyschizandrin] | increased | – |

Continued, compound first:

| SMILES | IC50 (MDA-MB-231 cells) | IC50 (AdipoR1; [2]) | IC50 (AdipoR1; [3]) | Effect on PPARα phosphorylation level [1] | Effect on PPARα phosphorylation level ([1]; listed as gramine) |
| --- | --- | --- | --- | --- | --- |
| COc1ccc(C[C@H]2COC(=O)[C@@H]2Cc2ccc(O[C@@H]3O[C@H](CO)[C@@H](O)[C@H](O)[C@H]3O)c(OC)c2)cc1OC [Compound 1, Arctiin] | 3.2 ± 0.3 µM | 1.2 µM | 1.3 ± 0.2 µM | inhibited | – |
| C=C1C(=O)O[C@H]2[C@H]1CC/C(C)=C/CC[C@@]1(C)O[C@@H]21 [Compound 7, Parthenolide] | > 10 µM | > 5 µM | > 5 µM | increased | – |
| CN(C)Cc1c[nH]c2ccccc12 [Compound 9, Gramine] | 9.6 ± 0.9 µM | 4.5 µM | 4.2 ± 0.5 µM | inhibited | decreased |
